Source: patent publication US20090023589A1, “METHODS FOR IDENTIFYING CONDITIONS AFFECTING A CELL STATE” (priority 2004, published 2009)

Tested on: HL-60 cells
Test: Surface marker expression profile of HL-60 cells after combinatorial differentiation (flow cytometry, percent positive cells, hierarchical clustering)
Assay type: cell-based
Details: for expression of cell surface marker CD 125w: med concentrations, sodium butyrate at pH 7.8; for monocyte signature profile (CD 14hi, CD11b/Mac-1hi, CD 13+, CD66b-): binary and ternary combinations, clustering on myeloid markers
Procedure: HL-60 cells were used to study what factors are involved in cellular differentiation. At day 0, the cells were plated in wells using a 96 well plate at a seeding density of approximately 60,000 cells, appropriate cell media was added. […] Cells were induced with the factors in Table 1 and 2. At day 4, the cells were harvested and labeled with antibody (see Table 3) for cytometry. The labeling was accomplished by washing the cells with PBS (phosphate buffered saline). Then gamma globulin was used to block non-specific binding sites. The gamma globulin treatment lasted for approximately 20 minutes at room temperatures on a rocker shaker.
The antibody cocktail concentration for each antibody used was based on manufacturer's instruction adjusted for final cell number. The antibody cocktail was incubated for 30 minutes at room temperature on rocking shaker. Following the incubation, the cells were washed using PBS. The cells were resuspended in 1% ultrapure methanol free formaldehyde and refrigerated until analysis. The cells were analyzed using a BD FACSCalibur equipped with a high throughput sampler (HTS) which has a dual laser excitation line: argon (488 nm) and red diode (635 nm).
The positive control for these experiments was 100 nm vitamin D3 plus CD 14 antibody. The negative controls were (1) untreated cells plus antibody cocktails located on the plates; and (2) fresh untreated cells plus antibody cocktails located on separate plates.
HL-60 cells were exposed to five well studied chemical differentiation factors (dimethylsulfoxide (DMSO), Vitamin D3, Phorbol-12-myristate-13-acetate (PMA), Sodium butyrate+pH 7.8, and all-Trans Retinoic Acid (ATRA)) known to promote differentiation along three distinct pathways (neutrophil, monocyte, eosinophil/basophil) within the myeloid lineage. Differentiation was induced by creating binary and ternary five factor combinations using the five factors at three concentrations for the binary experiment and two concentrations for the ternary experiment.
To observe experiment-wide profiles of marker expression, we used the percentage of positive cells for all markers and constructed a profile for each combinatorial treatment. Hierarchical clustering orders the data so that the most similar profile are next to each other in the plot.
To refine cluster analysis with relevant information, one can choose specific cell surface markers. In order to test the validity of the experiment, we clustered based on cell surface markers known to be expressed in the myeloid lineage: CD66b, CD11b/Mac-1, CD13+CD 14 (FIG. 8 a,b). Cells which have differentiated toward the monocytic lineage have a CD 14^hi, CD11b/Mac-1^hi, CD 13^+, CD66b^− expression profile.

Row | SMILES | expression of cell surface marker CD 125w | monocyte signature profile (CD 14hi, CD11b/Mac-1hi, CD 13+, CD66b-)
1 | C[S+](C)[O-] [DMSO, dimethylsulfoxide] | neither DMSO^med nor sodium butyrate^med, pH 7.8 alone produced cells positive for CD 125w | 
2 | CCCCCCCCCCCCCC(=O)O[C@@H]1[C@@H](C)[C@@]2(O)[C@@H](C=C(CO)C[C@]3(O)C(=O)C(C)=C[C@@H]23)[C@@H]2C(C)(C)[C@]12OC(C)=O [PMA, Phorbol-12-myristate-13-acetate] |  | contributed to the monocyte signature profile
3 | C=C1CC[C@H](O)C/C1=C/C=C1\CCC[C@]2(C)[C@@H]([C@H](C)CCCC(C)C)CC[C@@H]12 [Vitamin D3] |  | contributed to the monocyte signature profile
4 | CCCC(=O)[O-].[Na+] [sodium butyrate, Sodium butyrate] | neither DMSO^med nor sodium butyrate^med, pH 7.8 alone produced cells positive for CD 125w | 
